{"source": "ChEMBL document CHEMBL4706659", "about": "“Design, synthesis and biological evaluation of novel 2,4-diaryl pyrimidine derivatives as selective EGFR inhibitors” (Eur J Med Chem, 2021)", "key": {"PC-9": {"system": "PC-9", "assay": "Antiproliferative activity against human PC-9 cells harboring EGFR L858R mutant by MTT assay", "assay_type": "functional, cell-based"}, "[1]": {"assay": "Selectivity ratio of IC50 for antiproliferative activity against human NCI-H292 cells harboring wild-type EGFR to IC50 for antiproliferative activity against human NCI-H1975 cells harboring EGFR T790M/L858R mutant", "assay_type": "functional"}, "[2]": {"target": "Epidermal growth factor receptor (Homo sapiens, UniProt P00533, L858R/T790M)", "sequence (P00533 25-1210 T790M/L858R limits assumed)": "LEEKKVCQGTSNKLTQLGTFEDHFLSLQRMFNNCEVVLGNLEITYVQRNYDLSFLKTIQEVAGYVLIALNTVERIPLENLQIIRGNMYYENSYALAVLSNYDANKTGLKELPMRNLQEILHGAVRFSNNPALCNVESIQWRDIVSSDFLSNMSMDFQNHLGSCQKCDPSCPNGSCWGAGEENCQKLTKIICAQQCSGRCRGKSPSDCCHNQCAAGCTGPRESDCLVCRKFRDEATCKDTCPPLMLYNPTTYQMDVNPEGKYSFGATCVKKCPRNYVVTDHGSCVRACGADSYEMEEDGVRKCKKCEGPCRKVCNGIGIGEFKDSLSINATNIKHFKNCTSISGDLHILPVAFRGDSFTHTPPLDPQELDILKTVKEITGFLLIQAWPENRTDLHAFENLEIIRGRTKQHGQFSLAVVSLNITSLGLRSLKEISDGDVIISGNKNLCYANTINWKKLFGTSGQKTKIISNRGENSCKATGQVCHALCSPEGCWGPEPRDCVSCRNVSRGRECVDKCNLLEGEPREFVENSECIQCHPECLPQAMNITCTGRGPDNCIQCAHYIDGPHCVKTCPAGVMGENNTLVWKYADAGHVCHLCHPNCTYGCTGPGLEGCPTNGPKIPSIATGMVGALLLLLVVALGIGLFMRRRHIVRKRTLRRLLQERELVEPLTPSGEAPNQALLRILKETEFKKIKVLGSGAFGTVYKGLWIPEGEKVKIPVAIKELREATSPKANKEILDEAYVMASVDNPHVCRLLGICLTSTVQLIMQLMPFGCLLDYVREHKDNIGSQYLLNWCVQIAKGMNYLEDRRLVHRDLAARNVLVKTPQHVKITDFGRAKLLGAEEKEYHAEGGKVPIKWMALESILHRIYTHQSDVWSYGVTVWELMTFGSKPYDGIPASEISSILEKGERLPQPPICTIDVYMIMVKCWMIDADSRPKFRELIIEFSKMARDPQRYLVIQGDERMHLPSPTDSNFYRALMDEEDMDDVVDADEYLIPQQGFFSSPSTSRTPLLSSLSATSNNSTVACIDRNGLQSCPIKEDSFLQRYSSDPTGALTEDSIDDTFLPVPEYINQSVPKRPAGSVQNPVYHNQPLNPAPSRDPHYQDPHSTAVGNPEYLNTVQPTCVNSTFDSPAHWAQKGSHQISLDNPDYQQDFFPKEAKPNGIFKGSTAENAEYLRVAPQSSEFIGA", "assay": "Inhibition of recombinant human GST-tagged EGFR T790M/L858R double mutant (668 to 1210 residues) expressed in baculovirus expression system using Tyr 4 as substrate incubated for 60 mins by Z'-Lyte assay"}, "[3]": {"target": "Epidermal growth factor receptor (Homo sapiens, UniProt P00533, L858R)", "sequence (P00533 25-1210 L858R limits assumed)": "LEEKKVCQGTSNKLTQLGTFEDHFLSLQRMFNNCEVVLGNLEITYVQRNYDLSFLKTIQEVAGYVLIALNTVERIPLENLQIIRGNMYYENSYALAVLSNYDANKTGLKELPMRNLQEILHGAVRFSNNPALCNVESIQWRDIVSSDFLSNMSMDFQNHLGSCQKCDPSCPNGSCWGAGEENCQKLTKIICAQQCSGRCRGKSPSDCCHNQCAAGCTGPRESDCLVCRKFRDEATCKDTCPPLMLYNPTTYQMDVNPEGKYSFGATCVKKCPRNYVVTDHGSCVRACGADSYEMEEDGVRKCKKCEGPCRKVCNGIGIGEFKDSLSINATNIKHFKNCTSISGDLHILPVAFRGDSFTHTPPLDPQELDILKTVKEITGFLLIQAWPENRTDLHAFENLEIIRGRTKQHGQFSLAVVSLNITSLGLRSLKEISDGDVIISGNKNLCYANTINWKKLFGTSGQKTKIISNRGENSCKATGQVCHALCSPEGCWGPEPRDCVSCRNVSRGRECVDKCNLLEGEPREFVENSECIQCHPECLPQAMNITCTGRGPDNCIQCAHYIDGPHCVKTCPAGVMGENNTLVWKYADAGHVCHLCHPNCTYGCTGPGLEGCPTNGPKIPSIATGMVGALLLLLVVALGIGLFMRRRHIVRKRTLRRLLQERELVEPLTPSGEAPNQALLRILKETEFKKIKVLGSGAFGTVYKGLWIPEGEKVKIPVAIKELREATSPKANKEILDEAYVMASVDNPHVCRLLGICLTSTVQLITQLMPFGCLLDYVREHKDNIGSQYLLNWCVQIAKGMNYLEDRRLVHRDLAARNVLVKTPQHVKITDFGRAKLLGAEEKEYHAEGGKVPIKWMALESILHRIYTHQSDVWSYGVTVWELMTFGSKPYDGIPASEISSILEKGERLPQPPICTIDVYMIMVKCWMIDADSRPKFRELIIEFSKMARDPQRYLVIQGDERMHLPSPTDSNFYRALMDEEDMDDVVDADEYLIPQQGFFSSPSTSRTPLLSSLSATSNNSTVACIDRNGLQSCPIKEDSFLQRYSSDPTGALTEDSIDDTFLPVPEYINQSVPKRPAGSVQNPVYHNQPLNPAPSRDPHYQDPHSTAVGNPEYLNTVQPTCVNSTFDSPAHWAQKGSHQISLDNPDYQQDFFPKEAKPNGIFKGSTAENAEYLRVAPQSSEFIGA", "assay": "Inhibition of human recombinant GST-tagged EGFR L858R mutant expressed in baculovirus expression system using tyrosine 4 peptide as substrate after 60 mins in presence of ATP FRET based Z'-LYTE assay"}, "[4]": {"target": "Epidermal growth factor receptor (Homo sapiens, UniProt P00533)", "sequence (P00533 whole entry)": "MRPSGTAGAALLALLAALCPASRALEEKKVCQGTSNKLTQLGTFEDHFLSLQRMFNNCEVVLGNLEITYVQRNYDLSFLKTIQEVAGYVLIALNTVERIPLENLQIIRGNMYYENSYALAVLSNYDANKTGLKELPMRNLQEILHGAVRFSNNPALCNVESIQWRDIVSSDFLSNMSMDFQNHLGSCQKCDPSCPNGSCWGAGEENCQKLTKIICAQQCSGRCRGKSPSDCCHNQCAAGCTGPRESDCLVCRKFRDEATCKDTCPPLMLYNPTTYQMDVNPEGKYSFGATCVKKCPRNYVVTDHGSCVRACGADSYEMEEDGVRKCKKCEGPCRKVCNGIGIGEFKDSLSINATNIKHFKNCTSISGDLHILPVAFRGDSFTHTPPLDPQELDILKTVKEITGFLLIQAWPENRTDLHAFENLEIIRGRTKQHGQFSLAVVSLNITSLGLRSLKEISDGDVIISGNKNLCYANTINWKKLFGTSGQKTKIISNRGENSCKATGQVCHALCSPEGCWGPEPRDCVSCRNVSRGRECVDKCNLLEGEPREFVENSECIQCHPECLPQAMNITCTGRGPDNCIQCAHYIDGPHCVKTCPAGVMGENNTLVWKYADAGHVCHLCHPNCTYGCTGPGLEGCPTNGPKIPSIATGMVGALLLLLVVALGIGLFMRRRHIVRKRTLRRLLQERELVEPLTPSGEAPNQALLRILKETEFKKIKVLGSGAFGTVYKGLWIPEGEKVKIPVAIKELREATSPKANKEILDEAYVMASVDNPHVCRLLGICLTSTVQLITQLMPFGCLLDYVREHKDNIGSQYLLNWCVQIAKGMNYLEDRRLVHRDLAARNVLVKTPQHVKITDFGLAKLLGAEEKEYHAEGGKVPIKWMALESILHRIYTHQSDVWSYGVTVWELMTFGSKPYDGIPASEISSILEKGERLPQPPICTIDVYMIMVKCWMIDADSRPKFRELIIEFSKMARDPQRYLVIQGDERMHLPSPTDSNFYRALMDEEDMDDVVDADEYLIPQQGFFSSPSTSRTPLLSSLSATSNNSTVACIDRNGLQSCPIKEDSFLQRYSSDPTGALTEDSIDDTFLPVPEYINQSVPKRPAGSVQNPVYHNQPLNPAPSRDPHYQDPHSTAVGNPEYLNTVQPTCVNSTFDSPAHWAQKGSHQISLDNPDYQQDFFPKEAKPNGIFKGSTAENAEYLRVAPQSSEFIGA", "assay": "Inhibition of recombinant human GST-tagged EGFR expressed in baculovirus expression system using tyr-04 peptide as substrate incubated for 60 mins in presence of ATP by Z'-LYTE assay"}, "L02": {"system": "L02", "assay": "Cytotoxicity against human L02 cells assessed as reduction in cell viability by MTT assay", "assay_type": "cell-based"}, "[5]": {"assay": "Cytotoxicity against HEK293-A cells assessed as reduction in cell viability by MTT assay", "assay_type": "cell-based", "settings": "Homo sapiens"}, "[6]": {"assay": "Selectivity ratio of IC50 for human L02 cells to IC50 for antiproliferative activity against human NCI-H1975 cells", "assay_type": "toxicity, cell-based", "settings": "L02 cells versus NCI-H1975 cells, read-out: Ratio IC50"}, "[7]": {"assay": "Selectivity ratio of IC50 for HLF cells to IC50 for antiproliferative activity against human NCI-H1975 cells"}, "NCI-H1975 [8]": {"system": "NCI-H1975", "assay": "Antimigratory activity against human NCI-H1975 cells harboring EGFR T790M/L858R mutant assessed as inhibition of cell migration at 3 nM measured after 24 hrs by phase contrast microscopic analysis relative to control", "assay_type": "functional"}, "NCI-H1975 [9]": {"system": "NCI-H1975", "assay": "Antimigratory activity against human NCI-H1975 cells harboring EGFR T790M/L858R mutant assessed as inhibition of cell migration at 3 nM measured after 48 hrs by phase contrast microscopic analysis relative to control", "assay_type": "functional"}, "NCI-H1975 [10]": {"system": "NCI-H1975", "assay": "Antimigratory activity against human NCI-H1975 cells harboring EGFR T790M/L858R mutant assessed as inhibition of cell migration at 9 nM measured after 24 hrs by phase contrast microscopic analysis relative to control", "assay_type": "functional"}, "NCI-H1975 [11]": {"system": "NCI-H1975", "assay": "Antimigratory activity against human NCI-H1975 cells harboring EGFR T790M/L858R mutant assessed as inhibition of cell migration at 9 nM measured after 48 hrs by phase contrast microscopic analysis relative to control", "assay_type": "functional"}, "NCI-H1975 [12]": {"system": "NCI-H1975", "assay": "Induction of apoptosis in human NCI-H1975 cells harboring EGFR T790M/L858R mutant assessed as viable cells at 1 nM measured after 48 hrs by Annexin-V-FITC/propidium iodide staining based flow cytometry (reference value: 98.63%)", "assay_type": "functional", "settings": "read-out: Activity"}, "NCI-H1975 [13]": {"system": "NCI-H1975", "assay": "Induction of apoptosis in human NCI-H1975 cells harboring EGFR T790M/L858R mutant assessed as early apoptotic cells at 1 nM measured after 48 hrs by Annexin-V-FITC/propidium iodide staining based flow cytometry (reference value: 0.82%)", "assay_type": "functional"}, "NCI-H1975 [14]": {"system": "NCI-H1975", "assay": "Induction of apoptosis in human NCI-H1975 cells harboring EGFR T790M/L858R mutant assessed as necrotic cells at 1 nM measured after 48 hrs by Annexin-V-FITC/propidium iodide staining based flow cytometry (reference value: […])", "assay_type": "functional"}, "NCI-H1975 [15]": {"system": "NCI-H1975", "assay": "Induction of apoptosis in human NCI-H1975 cells harboring EGFR T790M/L858R mutant assessed as late apoptotic cells at 5 nM measured after 48 hrs by Annexin-V-FITC/propidium iodide staining based flow cytometry (reference value: 0.04%)", "assay_type": "functional"}, "NCI-H1975 [16]": {"system": "NCI-H1975", "assay": "Induction of apoptosis in human NCI-H1975 cells harboring EGFR T790M/L858R mutant assessed as early apoptotic cells at 10 nM measured after 48 hrs by Annexin-V-FITC/propidium iodide staining based flow cytometry (reference value: 0.82%)", "assay_type": "functional"}, "NCI-H1975 [17]": {"system": "NCI-H1975", "assay": "Induction of apoptosis in human NCI-H1975 cells harboring EGFR T790M/L858R mutant assessed as late apoptotic cells at 10 nM measured after 48 hrs by Annexin-V-FITC/propidium iodide staining based flow cytometry (reference value: 0.04%)", "assay_type": "functional"}, "NCI-H1975 [18]": {"system": "NCI-H1975", "assay": "Induction of apoptosis in human NCI-H1975 cells harboring EGFR T790M/L858R mutant assessed as necrotic cells at 10 nM measured after 48 hrs by Annexin-V-FITC/propidium iodide staining based flow cytometry (reference value: […])", "assay_type": "functional"}, "NCI-H1975 [19]": {"system": "NCI-H1975", "assay": "Induction of apoptosis in human NCI-H1975 cells harboring EGFR T790M/L858R mutant assessed as viable cells at 1 nM measured after 72 hrs by Annexin-V-FITC/propidium iodide staining based flow cytometry (reference value: 98.66%)", "assay_type": "functional", "settings": "read-out: Activity"}, "NCI-H1975 [20]": {"system": "NCI-H1975", "assay": "Induction of apoptosis in human NCI-H1975 cells harboring EGFR T790M/L858R mutant assessed as early apoptotic cells at 1 nM measured after 72 hrs by Annexin-V-FITC/propidium iodide staining based flow cytometry (reference value: 0.72%)", "assay_type": "functional"}, "NCI-H1975 [21]": {"system": "NCI-H1975", "assay": "Induction of apoptosis in human NCI-H1975 cells harboring EGFR T790M/L858R mutant assessed as late apoptotic cells at 1 nM measured after 72 hrs by Annexin-V-FITC/propidium iodide staining based flow cytometry (reference value: 0.13%)", "assay_type": "functional"}, "NCI-H1975 [22]": {"system": "NCI-H1975", "assay": "Induction of apoptosis in human NCI-H1975 cells harboring EGFR T790M/L858R mutant assessed as necrotic cells at 1 nM measured after 72 hrs by Annexin-V-FITC/propidium iodide staining based flow cytometry (reference value: 0.49%)", "assay_type": "functional"}, "NCI-H1975 [23]": {"system": "NCI-H1975", "assay": "Induction of apoptosis in human NCI-H1975 cells harboring EGFR T790M/L858R mutant assessed as necrotic cells at 5 nM measured after 72 hrs by Annexin-V-FITC/propidium iodide staining based flow cytometry (reference value: 0.49%)", "assay_type": "functional"}, "NCI-H1975 [24]": {"system": "NCI-H1975", "assay": "Induction of mitochondrial membrane potential loss in human NCI-H1975 cells harboring EGFR T790M/L858R mutant measured after 24 hrs by JC1 staining based fluorescence microscopic analysis", "assay_type": "functional, cell-based", "settings": "dose 1-10 nM"}, "[25]": {"assay": "MRT in Sprague-Dawley rat at 10 mg/kg, po administered as single dose", "assay_type": "ADME, organism-based", "settings": "in vivo"}, "[26]": {"assay": "Oral bioavailability in Sprague-Dawley rat at 10 mg/kg administered as single dose", "assay_type": "ADME, organism-based", "settings": "in vivo"}, "[27]": {"assay": "Cmax in Sprague-Dawley rat at 2 mg/kg, iv administered as single dose", "assay_type": "ADME, organism-based", "design": "route intravenous, dose 2 mg/kg", "settings": "in vivo"}, "[28]": {"assay": "AUC (0 to t) in Sprague-Dawley rat at 2 mg/kg, iv administered as single dose", "assay_type": "ADME, organism-based", "design": "dose 2 mg/kg", "settings": "in vivo"}, "[29]": {"assay": "Toxicity in nude mouse xenografted with human NCI-H1975 cells harboring EGFR T790M/L858R mutant assessed as mortality at 15 mg/kg, po administered once daily for 7 days relative to control", "assay_type": "organism-based", "settings": "in vivo, time 7 day, read-out: Activity"}}}
{"smiles": "C=CC(=O)Nc1cc(Nc2nccc(-c3cn(C4CC4)c4ccccc34)n2)c(OC)cc1[S+]([O-])CCN(C)C", "note": "(stereo unspecified)", "values": [{"measurement": "IC50", "setting": "PC-9", "result": 4, "unit": "nM"}, {"measurement": "Ratio IC50", "setting": "[1]", "result": 89.8}, {"measurement": "IC50", "setting": "[2]", "result": 0.26, "unit": "nM"}, {"measurement": "IC50", "setting": "[3]", "result": 1.1, "unit": "nM"}, {"measurement": "IC50", "setting": "[4]", "result": 4.1, "unit": "nM"}, {"measurement": "IC50", "setting": "L02", "result": 4670, "unit": "nM"}, {"measurement": "IC50", "setting": "[5]", "result": 3060, "unit": "nM"}, {"measurement": "selectivity ratio", "setting": "[6]", "result": 584}, {"measurement": "Ratio IC50", "setting": "[7]", "result": 755}, {"measurement": "inhibition at 0.003 µM", "setting": "NCI-H1975 [8]", "result": 39, "unit": "%"}, {"measurement": "inhibition at 0.003 µM", "setting": "NCI-H1975 [9]", "result": 53, "unit": "%"}, {"measurement": "inhibition at 0.009 µM", "setting": "NCI-H1975 [10]", "result": 47, "unit": "%"}, {"measurement": "inhibition at 0.009 µM", "setting": "NCI-H1975 [11]", "result": 74, "unit": "%"}, {"measurement": "viability at 0.001 µM", "setting": "NCI-H1975 [12]", "result": 82, "unit": "%"}, {"measurement": "Activity", "setting": "NCI-H1975 [13]", "result": 10.89, "unit": "%"}, {"measurement": "Activity", "setting": "NCI-H1975 [14]", "result": 5.52, "unit": "%"}, {"measurement": "Activity", "setting": "NCI-H1975 [15]", "result": 3.64, "unit": "%"}, {"measurement": "Activity", "setting": "NCI-H1975 [16]", "result": 15.92, "unit": "%"}, {"measurement": "Activity", "setting": "NCI-H1975 [17]", "result": 21.25, "unit": "%"}, {"measurement": "Activity", "setting": "NCI-H1975 [18]", "result": 21.2, "unit": "%"}, {"measurement": "viability at 0.001 µM", "setting": "NCI-H1975 [19]", "result": 70.3, "unit": "%"}, {"measurement": "Activity", "setting": "NCI-H1975 [20]", "result": 17.25, "unit": "%"}, {"measurement": "Activity", "setting": "NCI-H1975 [21]", "result": 2.93, "unit": "%"}, {"measurement": "Activity", "setting": "NCI-H1975 [22]", "result": 9.52, "unit": "%"}, {"measurement": "Activity", "setting": "NCI-H1975 [23]", "result": 10.51, "unit": "%"}, {"measurement": "Activity", "setting": "NCI-H1975 [24]", "result": "Dose-dependent effect"}, {"measurement": "MRT", "setting": "[25]", "result": 3.61, "unit": "h"}, {"measurement": "bioavailability", "setting": "[26]", "result": 40.4, "unit": "%"}, {"measurement": "Cmax", "setting": "[27]", "result": 503, "unit": "ng/mL"}, {"measurement": "AUC(0-t)", "setting": "[28]", "result": 335, "unit": "ng·h/mL"}, {"measurement": "mortality at 168 h", "setting": "[29]", "result": "< 5", "unit": "%"}]}
